Results from patent US6372194B1, “MRI contrast media recognizing minor environmental changes” (Nihon Schering K.K., priority 1997, dated 2002).

Assay: Proton relaxing times (T1, T2) and proton relaxivity, Minispec 20 MHz, 40° C.
Type: physicochemical
Conditions: for T1 relaxing time / T2 relaxing time: 20 MHz, 40° C.
Protocol: The proton relativity of poly[Gd(DTPA-PDA)2]35 and poly[Gd(DTPA-PDA)5]14 obtained in Example 1 was compared with that of conventional MRI contrast medium. As the conventional MRI contrast medium, used was Gd-DTPA (Magnevist). The proton relaxivity was determined by using Minispec (NMS 120/125/10VTS, manufactured by Japan Bruker) at frequency at 20 MHz and temperature at 40° C. T1 was determined using an IR (inversion recovery) method under the conditions of initial τ of 2 ms, τ magnification of 1.7 and determination points of 20. T2 was determined using a CPMG (Carr-Purcell-Meiboon-Gill) method under the conditions of τ of 1 ms and determination points of 50.
Respective proton relaxing times (T1 and T2) are shown in Table 1, and the proton relaxivity (R1 and R2) calculated from said proton relaxing time are shown in Table 2.

O=C([O-])CN(CCN(CC(=O)[O-])CC(=O)O)CCN(CC(=O)[O-])CC(=O)O.[Gd+3] [Gd-DTPA]
T1 relaxing time (Gd concentration 0.1 mM): 1503 ms | T2 relaxing time (Gd concentration 0.1 mM): 1339 ms | T1 relaxing time (Gd concentration 1 mM): 247 ms | T2 relaxing time (Gd concentration 1 mM): 220 ms | T1 relaxing time (Gd concentration 5 mM): 53 ms | T2 relaxing time (Gd concentration 5 mM): 47 ms | T1 relaxing time (Gd concentration 10 mM): 26 ms | T2 relaxing time (Gd concentration 10 mM): 24 ms | proton relaxivity R1 (calculated from proton relaxing time): 3.81 1 mmol^−1 sec^−1
